Experimental findings from patent US12516054B2, “Pyrazolo[1,5-a]pyridine derivatives, preparation method therefor and use thereof” (SHANGHAI DAIDAI INVESTMENT CONSULTING CO., LTD, priority 2019, dated 2026) are described below.

For one assay, the system named is TT cells. Nature of the assay: Inhibition of proliferation of tumor cells with abnormal RET (TT cells), CellTiter-Glo. It is filed as cell-based. As to conditions: 192 h, TT cells (human MTC, RET C634W), incubated 8 d, read-out: IC50 for inhibition on TT cell proliferation. The protocol: The following method was used to determine the inhibitory activity of the preferred compound of the present disclosure on the proliferation of TT cells in vitro. TT cells were a human medullary thyroid cancer (MTC) cell line, including the RET C634W mutation. The cell line was purchased from the American ATCC (Cat. No. ATCC® CRL-1803). The cells were cultivated at 37° C. and 5% CO2 with the Ham's F-12K (Kaighn's) medium (purchased from Thermofisher, Gibco, Cat. No. 21127022) that was supplemented with 10% fetal bovine serum (FBS, purchased from Thermofisher, Gibco, Cat. No. 12483-020), 1× Glutamax (purchased from Thermofisher, Gibco, Cat. No. 35050061), 1× non-essential amino acids (purchased from Thermofisher, Gibco, Cat. No. 11140050), and 1× Pen/Strep antibiotics (purchased from Thermofisher, Gibco, Cat. No. 15140122). Cell viability was determined using CellTiter-Glo® Luminescent Cell Viability Assay (Cat. No. G7573) of Promega.
Brief description of an experimental method: The day before the formal experiment, the cells at the logarithmic growth phase were digested with trypsin (purchased from Thermofisher, Gibco, Cat. No. 25300054), then an appropriate volume of the medium was added to terminate the trypsin reaction, and a resulting mixture was centrifuged at a speed of 1,000 rpm; a resulting supernatant was removed, and fresh medium was added to prepare a cell suspension; and 50 µL of the cell suspension was added to a 96-well cell culture plate (purchased from Corning, Cat. No. 3904) with a cell density of 6,000 cells/well, and then the cell culture plate was incubated overnight at 37° C. and 5% CO2. […] After the incubation was completed, 50 μL of a CellTiter-Glo reagent was added to each well, a resulting mixture was thoroughly shaken and then incubated at room temperature for 10 min in the dark, and then a signal of each well was read on the Envision microplate reader (Perkin Elmer). […]
(Cellular ATP, detected with luciferase, serves as a proxy for viable cell number.)

Assay [1] addresses GST-hRET kinase (658-1114) (Homo sapiens (Human), UniProt P07949). The assay is described as follows: Inhibitory activity on RET enzyme (HTRF KinEASE-TK). It is filed as biochemical. As to conditions: 0.5 nM RET kinase, 10 μM ATP, read-out: IC50 for inhibition on RET enzyme activity. Here is the method:
2. Reagent Preparation • (1) 1× enzyme reaction buffer: 5× enzyme reaction buffer was diluted with ultrapure water (UPW) at 4:1, and then 25 nM SEB was added. • (2) 5×RET kinase: RET kinase was diluted with 1× enzyme reaction buffer to 2.5 nM. • (3) 5×ATP: ATP was diluted with 1× enzyme reaction buffer to 50 μM. • (4) 5× substrate: TK substrate-biotin was diluted with 1× enzyme reaction buffer to 2,500 nM. • (5) 2.5× compound: The highest final concentration was 2,500 nm, 3-fold gradient dilution was conducted to obtain 10 dilution points, and a final DMSO concentration was 0.4%. • (6) 4× Steptavidin-XL665: Steptavidin-XL665 was diluted with 1× enzyme reaction buffer to […]. 3. Experimental Process • (1) 5×RET kinase was added to a 384-well plate at 2 μl/well (final concentration of 0.5 nM), and a blank group (enzyme reaction buffer) was set as a negative control. • (2) A 2.5× compound solution was added at 4 μl/well, and then the plate was incubated at room temperature for 30 min. A DMSO group was set as a positive control. • (3) 5× substrate (at 2 μl/well, final concentration: 500 nM) and 5×ATP (at 2 μl/well, final concentration: 10 μM) were added to start a reaction, and the reaction was conducted at room temperature for 30 min. • (4) TK Antibody-Cryptate (at 5 μl/well) and 4× Steptavidin-XL665 (at 5 μl/well, final concentration: […]) were added, and the plate was incubated at room temperature for 60 min. • (5) An HTRF signal was read on Envision. 4. Data Analysis
The dosage effect (IC50) of the compound with analyzed using the Graph Pad prism software.
(In general: In TR-FRET formats the signal depends on donor and acceptor labels being close together.)

Chain of GST-hRET kinase (658-1114) (P07949 658-1114): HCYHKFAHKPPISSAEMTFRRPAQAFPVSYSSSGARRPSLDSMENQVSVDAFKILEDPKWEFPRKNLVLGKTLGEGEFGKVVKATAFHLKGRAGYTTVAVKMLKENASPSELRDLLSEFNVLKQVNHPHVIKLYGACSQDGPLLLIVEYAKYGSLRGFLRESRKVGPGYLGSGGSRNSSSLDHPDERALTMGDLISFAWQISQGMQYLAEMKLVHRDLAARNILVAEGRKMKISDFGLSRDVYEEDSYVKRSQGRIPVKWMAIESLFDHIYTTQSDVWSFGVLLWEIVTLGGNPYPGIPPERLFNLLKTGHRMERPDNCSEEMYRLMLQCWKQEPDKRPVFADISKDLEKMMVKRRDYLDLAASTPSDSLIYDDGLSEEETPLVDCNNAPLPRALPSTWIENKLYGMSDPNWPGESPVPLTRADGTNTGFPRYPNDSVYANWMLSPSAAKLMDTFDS

For the compound `COc1ccc(C(=O)N2CC=C(c3ccc(-c4cc(OCC(C)(C)O)cn5ncc(C#N)c45)cn3)CC2)cn1` [Compound 8, 6-(2-hydroxy-2-methylpropoxy)-4-(1′-(6-methoxynicotinoyl)-1′,2′,3′,6′-tetrahydro-[2,4′-bipyridin]-5-yl)pyrazolo[1,5-a]pyridine-3-carbonitrile], the IC50 in the assay on TT cells turned out to be 87.8 nM. For the compound `COc1ccc(CN2C3CC2CN(c2ccc(-c4cc(CCC(C)(C)O)cn5ncc(C#N)c45)cn2)C3)cn1` [Compound 10, 6-(3-hydroxy-3-methylbutyl)-4-(6-(6-((6-methoxypyridin-3-yl)methyl)-3,6-diazabicyclo[3.1.1]heptan-3-yl)pyridin-3-yl)pyrazolo[1,5-a]pyridine-3-carbonitrile], the IC50 in the assay on TT cells came out at 68.6 nM; in assay [1] it was 5.6 nM. As to `COc1ccc(CN2CC=C(c3ccc(-c4cc(OCC(C)(C)O)cn5ncc(C#N)c45)cn3)CC2)cn1` [Compound 2, 6-(2-hydroxy-2-methylpropoxy)-4-(1′-((6-methoxypyridin-3-yl)methyl)-1′,2′,3′,6′-tetrahydro-[2,4′-bipyridin]-5-yl)pyrazolo[1,5-a]pyridine-3-carbonitrile], the IC50 in assay [1] amounted to 25.4 nM.

With `COc1ccc(CN2CC=C(c3ccc(-c4cc(-c5cnn(C)c5)cn5ncc(C#N)c45)cn3)CC2)cn1` [Compound 1, 4-(1′-((6-methoxypyridin-3-yl)methyl)-1′,2′,3′,6′-tetrahydro-[2,4′-bipyridin]-5-yl)-6-(1-methyl-1H-pyrazol-4-yl)pyrazolo[1,5-a]pyridine-3-carbonitrile], the results for the IC50 (in the assay on TT cells; in assay [1]) were 28.9 nM and 23.1 nM, respectively.
